Drawing on patent US20240365784A1, “AZOLE COMPOUNDS FOR CONTROLLING INVERTEBRATE PESTS” (FMC Corporation, priority 2021, published 2024), this text covers mortality and melting point for 15 molecules.

Molecules are shown by their SMILES.

The test system of data set [1] is green peach aphid (Myzus persicae (Sulzer)). The experiment in a line: whole plant or invertebrate. The data set is classed as in vivo. The following applies: 144 h, sprayed at 50 ppm, radish plant, assessed after 6 days. The method, then: (§1) Test compounds were formulated using a solution containing 10% acetone, 90% water and 300 ppm Activator 90® non-ionic surfactant (Loveland Products, Loveland, Colorado, USA). The formulated compounds were applied in 1 mL of liquid through an atomizer nozzle positioned 1.27 cm (0.5 inches) above the top of each test unit. Test compounds were sprayed at the rates indicated, and each test was replicated three times.
For evaluating control of green peach aphid (Myzus persicae (Sulzer)) through contact and/or systemic means, the test unit consisted of a small open container with a 12-15-day-old radish plant inside. This was pre-infested by placing on a leaf of the test plant 30-40 aphids on a piece of leaf excised from a culture plant (cut-leaf method). The aphids moved onto the test plant as the leaf piece desiccated. After pre-infestation, the soil of the test unit was covered with a layer of sand.
Test compounds were formulated and sprayed at 250 and/or 50 ppm. After spraying of the formulated test compound, each test unit was allowed to dry for 1 hour and then a black, screened cap was placed on top. The test units were held for 6 days in a growth chamber at 19-21° C. and 50-70% relative humidity. Each test unit was then visually assessed for insect mortality.

The test system of data set [2] is cotton melon aphid (Aphis gossypii (Glover)). The experiment in a line: whole plant or invertebrate. In kind it is in vivo. The following applies: 144 h, okra plant, assessed after 6 days; for mortality at 50 ppm: sprayed at 50 ppm; for mortality at 10 ppm: tested at 10 ppm. The method, then:
as §1
For evaluating control of cotton melon aphid (Aphis gossypii (Glover)) through contact and/or systemic means, the test unit consisted of a small open container with a 5-day-old okra plant inside. This was pre-infested with 30-40 insects on a piece of leaf according to the cut-leaf method, and the soil of the test unit was covered with a layer of sand.
[…] After spraying, the test units were maintained in a growth chamber for 6 days at 19° C. and 70% relative humidity. Each test unit was then visually assessed for insect mortality.

The test system of data set [3] is sweetpotato whitefly (Bemisia tabaci (Gennadius)). The data set is described as follows: whole plant or invertebrate. The following applies: 312 h, cotton plant infested with eggs, assessed after 13 days; for mortality at 50 ppm: sprayed at 50 ppm; for mortality at 10 ppm: tested at 10 ppm. The data set is classed as in vivo. The protocol: as §1
For evaluating control of the sweetpotato whitefly (Bemisia tabaci (Gennadius)) through contact and/or systemic means, the test unit consisted of a small open container with a 12-14-day-old cotton plant inside. Prior to the spray application, both cotyledons were removed from the plant, leaving one true leaf for the assay. Adult whiteflies were allowed to lay eggs on the plant and then were removed from the test unit. Cotton plants infested with at least 15 eggs were submitted to the test for spraying.
[…] After spraying, the test units were allowed to dry for 1 hour. The cylinders were then removed, and the units were taken to a growth chamber and held for 13 days at 28° C. and 50-70% relative humidity. Each test unit was then visually assessed for insect mortality.

Data set [4] deals with corn planthopper (Peregrinus maidis (Ashmead)). The data set is described as follows: whole plant or invertebrate. The data set is classed as in vivo. As to conditions: 144 h, corn plant, nymphs, assessed after 6 days; for mortality at 10 ppm: sprayed at 10 ppm; for mortality at 50 ppm: sprayed at 50 ppm. The method, then: as §1
For evaluating control of corn planthopper (Peregrinus maidis (Ashmead)) through contact and/or systemic means, the test unit consisted of a small open container with a 3-4-day-old corn (maize) plant inside. White sand was added to the top of the soil prior to application of the test compound.
Test compounds were formulated and sprayed at 250 and/or 50 ppm and/or 10 ppm. After spraying of the formulated test compound, the test units were allowed to dry for 1 h before they were post-infested with ˜15-20 nymphs (18-to-21-day-old). A black, screened cap was placed on the top of each test unit, and the test units were held for 6 days in a growth chamber at 22-24° C. and 50-70% relative humidity. Each test unit was then visually assessed for insect mortality.

Data set [5] has as its system Brown Planthopper (Nilaparvata lugens (Stil)). The experiment in a line: Test F: control of Brown Planthopper, spray, contact and/or systemic. In kind it is in vivo. The following applies: 120 h, sprayed at 10 ppm, rice stems, nymphs, assessed after 5 days. The method, then:
as §1
For evaluating control of Brown Planthopper (Nilaparvata lugens (Stil)) through contact and/or systemic means, the test unit consisted of a small open container with 6-10 25-day-old rice stems inside. White sand was added to the top of the soil prior to application of the test compound.
Test compounds were formulated and sprayed at 50 ppm and/or 10 ppm. After spraying of the formulated test compound, the test units were allowed to dry for 1 h before they were post-infested with ˜15-20 nymphs (15-to-17-day-old). A black, screened cap was placed on the top of each test unit, and the test units were held for 5 days in a growth chamber at 28° C. and 65% relative humidity. Each test unit was then visually assessed for insect mortality.

For data set [6], the system named is green peach aphid (Myzus persicae (Sulzer)). The experiment in a line: whole plant or invertebrate. The data set is classed as in vivo. The following applies: 144 h, tested at 10 ppm, radish plant, assessed after 6 days.
The subject of data set [7] is potato leafhopper (Empoasca fabae (Harris)). The experiment in a line: Test B: control of potato leafhopper, spray, contact and/or systemic. As to conditions: tested at 50 ppm; Soleil bean plant, adults, assessed after 6 days. In kind it is in vivo. The protocol: as §1
Each test unit was then visually assessed for insect mortality.

In general, mortality refers to the percentage killed. A lower mortality goes with more survivors. On to `Fc1cncc(-n2cccn2)c1Cc1ccc(SC(F)(F)F)cc1` [Compound 19], for which the figures for the mortality at 50 ppm in data set [1], in data set [2] and in data set [3] were no less than 80%, no less than 80% and no less than 70%, respectively. For the same molecule, the mortality at 10 ppm in data set [2] was no less than 80%; in data set [3], no less than 70%; in data set [4], no less than 80%; in data set [5] it was no less than 80%.
`Fc1cncc(-n2cncn2)c1Cc1ccc(SC(F)(F)F)cc1` [Compound 24] yielded a mortality at 10 ppm in data set [6] of no less than 80%. Moreover, the mortality at 50 ppm in data set [1] and in data set [2] was no less than 80% in each case.
As for `Fc1cncc(-n2nccn2)c1Cc1ccc(OC(F)(F)F)cc1` [Compound 1, 3-fluoro-5-(triazol-2-yl)-4-[[4(trifluoromethoxy)phenyl]methyl]pyridine], the values for the mortality at 50 ppm in data set [1], in data set [3] and in data set [4] were no less than 80%, no less than 70% and no less than 80%, respectively. Moreover, the mortality at 10 ppm in data set [4] and in data set [5] was no less than 80% each time.
`FC(F)(F)Sc1ccc(Cc2c(Cl)cncc2-n2cccn2)cc1` [Compound 20]: the mortality at 50 ppm in data set [1] was no less than 80%; in data set [2], no less than 80%; in data set [3], no less than 70%; in data set [4], no less than 80%. In addition, the mortality at 10 ppm was no less than 80% in data set [2], no less than 70% in data set [3], no less than 80% in data set [4] and no less than 80% in data set [5].
The term melting point denotes the temperature, or range, at which the solid turns liquid. `[O-][S+](c1ccc(Cc2ccncc2-n2nccn2)cc1)C(F)(F)F` (centres unmarked) [Compound 28]: the melting point lay in the range of 81 to 84 °C.
For the molecule `Fc1cc(Cc2c(Cl)cncc2-n2nccn2)ccc1OC(F)(F)F` [Compound 70], the mortality at 10 ppm in data set [6], in data set [2] and in data set [4] was no less than 80% in each case. The mortality at 50 ppm in data set [1], in data set [2] and in data set [4] was no less than 80% each time.
Turning to `FC(F)(F)Sc1ccc(Cc2c(Cl)cncc2-n2nccn2)cc1` [Compound 5], the mortality at 10 ppm is no less than 80% in data set [6], no less than 70% in data set [3], no less than 80% in data set [4] and no less than 80% in data set [5]. The mortality at 50 ppm in data set [1] is no less than 80%; in data set [2] it was no less than 80%; in data set [3], no less than 70%; in data set [4], no less than 80%.
Regarding `CC(c1ccc(SC(F)(F)F)cc1)c1c(F)cncc1-n1nccn1` (centres unmarked) [Compound 8], the mortality at 50 ppm in data set [1], in data set [2] and in data set [4] was no less than 80% throughout. Further, the mortality at 10 ppm in data set [2], in data set [4] and in data set [5] was no less than 80% in each case.
For the molecule `Fc1cncc(-n2nccn2)c1Cc1ccc(Br)cc1` [Compound 31], the melting point fell in the range of 80 to 83 °C.
For `FC(F)(F)Sc1ccc(Cc2c(Cl)cncc2-n2cncn2)cc1` [Compound 21], the mortality at 10 ppm in data set [6] was no less than 80%; in data set [3], no less than 70%. The results for the mortality at 50 ppm in data set [1], in data set [2] and in data set [3] were no less than 80%, no less than 80% and no less than 70%, respectively.
On to `Fc1cncc(-n2nccn2)c1Cc1ccc(SC(F)(F)F)cc1` [Compound 2], for which the mortality at 10 ppm in data set [6], in data set [2], in data set [4] and in data set [5] was no less than 80% throughout. Also, the mortality at 50 ppm in data set [1], in data set [2] and in data set [4] was no less than 80% in each case.
As for `Cc1cnn(-c2cncc(F)c2Cc2ccc(OC(F)(F)F)cc2)n1` [Compound 3, 3-fluoro-5-(4-methyltriazol-2-yl)-4-[[4-(trifluoromethoxy)phenyl]methyl]pyridine], the mortality result in data set [7] is “at least 80%”.
Take `FC(F)(F)Sc1ccc(Cc2c(Br)cncc2-n2nccn2)cc1` [Compound 26]: the mortality at 10 ppm was no less than 80% in data set [6]; no less than 80% in data set [2]; no less than 70% in data set [3]; no less than 80% in data set [4]; no less than 80% in data set [5]. Further, the mortality at 50 ppm in data set [1] was no less than 80%; in data set [2] it was no less than 80%; in data set [3] it was no less than 70%; in data set [4] it was no less than 80%.
On to `FC(F)(F)Oc1ccc(Cc2c(Cl)cncc2-n2nccn2)cc1Cl` [Compound 71], for which the mortality at 50 ppm was no less than 80% in data set [1], no less than 80% in data set [2], no less than 70% in data set [3] and no less than 80% in data set [4]. Further, the values for the mortality at 10 ppm in data set [3] and in data set [4] were no less than 70% and no less than 80%, respectively.
As to `[O-][S+](c1ccc(Cc2c(F)cncc2-n2nccn2)cc1)C(F)(F)F` (centres unmarked) [Compound 18], the mortality at 50 ppm was no less than 80% in data set [1], no less than 80% in data set [2], no less than 70% in data set [3] and no less than 80% in data set [4].
